Experimental data published in patent US20090117127A1, “Novel Compounds and Methods for Their Production” (priority 2006, published 2009).

Assays:
Reverse transcriptase = settings: cited from earlier work
[1] = target: terminal deoxynucleotidyl transferase (Homo sapiens, UniProt P04053); settings: cited from earlier work
DU145 = assay: monolayer proliferation assay, modified propidium iodide assay; assay type: cell-based, human; settings: DU145 (prostate, PTEN positive), 4 days continuous exposure
Method: (§1) In vitro evaluation of compounds for anticancer activity in a panel of human tumour cell lines in a monolayer proliferation assay was carried out at the Oncotest Testing Facility, Institute for Experimental Oncology, Oncotest GmbH, Freiburg.
(§2) The Oncotest cell lines are established from human tumor xenografts as described by Roth et al., (1999). The origin of the donor xenografts was described by Fiebig et al., (1999). Other cell lines are either obtained from the NCI (DU145, MCF-7) or purchased from DSMZ, Braunschweig, Germany.
(§3) All cell lines, unless otherwise specified, were grown at 37° C. in a humidified atmosphere (95% air, 5% CO2) in a ‘ready-mix’ medium containing RPMI 1640 medium, 10% fetal calf serum, and 0.1 mg/mL gentamicin (PAA, Cölbe, Germany).
(§4) A modified propidium iodide assay was used to assess the effects of the test compound(s) on the growth of human tumour cell lines (Dengler et al., (1995)).
(§5) Briefly, cells were harvested from exponential phase cultures by trypsinization, counted and plated in 96 well flat-bottomed microtitre plates at a cell density dependent on the cell line (5-10.000 viable cells/well). After 24 h recovery to allow the cells to resume exponential growth, 0.010 mL of culture medium (6 control wells per plate) or culture medium containing the 11-O-desmethylmacbecin analogue were added to the wells. Each concentration was plated in triplicate. Compounds were applied in two concentrations (1 μg/mL and 10 μg/mL). Following 4 days of continuous exposure, cell culture medium with or without test compound was replaced by 0.2 mL of an aqueous propidium iodide (PI) solution (7 mg/L). To measure the proportion of living cells, cells were permeabilized by freezing the plates. After thawing the plates, fluorescence was measured using the Cytofluor 4000 microplate reader (excitation 530 nm, emission 620 nm), giving a direct relationship to the total number of viable cells. Growth inhibition was expressed as treated/control×100 (% T/C).
(§6) In vitro evaluation of the test compounds for anticancer activity in a panel of human tumour cell lines in a monolayer proliferation assay was carried out as described in the general methods using a modified propidium iodide assay.

CXF HT29 = assay: as above; assay type: cell-based, human; settings: CXF HT29 (colon), 4 days continuous exposure
Method: as §1, §2, §3, §4, §5, §6

MCF-7 = assay: as above; assay type: cell-based, human; settings: MCF-7 (breast), 4 days continuous exposure
Method: as §1, §2, §3, §4, §5, §6

LXF 1121L = assay: as above; assay type: cell-based, human; settings: LXF 1121L (lung, large cell ca), 4 days continuous exposure
Method: as §1, §2, §3, §4, §5, §6

CNXF 498NL = assay: as above; assay type: cell-based, human; settings: CNXF 498NL (CNS), 4 days continuous exposure
Method: as §1, §2, §3, §4, §5, §6

MEXF 394NL = assay: as above; assay type: cell-based, human; settings: MEXF 394NL (melanoma), 4 days continuous exposure
Method: as §1, §2, §3, §4, §5, §6

Hsp90 = Hsp90 (Homo sapiens, UniProt P07900); settings: cited from earlier work

Sequence of terminal deoxynucleotidyl transferase (P04053 whole entry, species assumed): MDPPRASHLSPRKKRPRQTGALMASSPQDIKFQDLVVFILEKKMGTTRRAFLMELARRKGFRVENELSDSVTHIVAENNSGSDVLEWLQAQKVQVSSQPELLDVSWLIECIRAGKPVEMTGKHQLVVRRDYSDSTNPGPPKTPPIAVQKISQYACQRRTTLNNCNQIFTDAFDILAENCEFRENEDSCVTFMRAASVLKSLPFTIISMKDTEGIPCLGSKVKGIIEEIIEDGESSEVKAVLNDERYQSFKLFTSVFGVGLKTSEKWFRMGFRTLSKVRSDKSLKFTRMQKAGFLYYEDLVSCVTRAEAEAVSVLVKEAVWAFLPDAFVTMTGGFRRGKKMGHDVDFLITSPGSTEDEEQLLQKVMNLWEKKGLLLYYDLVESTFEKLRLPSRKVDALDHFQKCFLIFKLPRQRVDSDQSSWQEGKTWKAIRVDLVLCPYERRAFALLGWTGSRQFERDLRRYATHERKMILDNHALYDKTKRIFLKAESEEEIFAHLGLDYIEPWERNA

Row | SMILES | inhibition of reverse transcriptase activity (Reverse transcriptase) | inhibition of terminal deoxynucleotidyl transferase activity [1] | Test/Control (%) at drug concentration (DU145; 1 μg/mL) | Test/Control (%) at drug concentration (DU145; 10 μg/mL) | Test/Control (%) at drug concentration (CXF HT29; 1 μg/mL) | Test/Control (%) at drug concentration (CXF HT29; 10 μg/mL) | Test/Control (%) at drug concentration (MCF-7; 1 μg/mL) | Test/Control (%) at drug concentration (MCF-7; 10 μg/mL) | Test/Control (%) at drug concentration (LXF 1121L; 1 μg/mL) | Test/Control (%) at drug concentration (LXF 1121L; 10 μg/mL) | Test/Control (%) at drug concentration (CNXF 498NL; 1 μg/mL) | Test/Control (%) at drug concentration (CNXF 498NL; 10 μg/mL) | Test/Control (%) at drug concentration (MEXF 394NL; 1 μg/mL) | Test/Control (%) at drug concentration (MEXF 394NL; 10 μg/mL) | binding affinity to Hsp90, greater than 17-AAG (Hsp90; relative to 17-AAG) | binding affinity to Hsp90, greater than geldanamycin (Hsp90; relative to geldanamycin)
1 | CO[C@H]1[C@@H](OC)C[C@H](C)[C@@H](OC)C2=CC(=O)C=C(NC(=O)/C(C)=C/C=C\[C@H](C)[C@@H](OC(N)=O)/C(C)=C/[C@@H]1C)C2=O [Macbecin, macbecin, reference compound] | not inhibited | not inhibited | 13% | 5% | 22% | 8% | 42% | 19% | 30% | 17% | 29% | 14% | 16% | 13% |  | 
2 | CO[C@H]1C[C@H](C)CC2=CC(=O)C=C(NC(=O)/C(C)=C/CC[C@H](C)[C@@H](OC(N)=O)/C(C)=C/[C@H](C)[C@H]1O)C2=O [compound 17, 4,5-dihydro-11-O-desmethyl-15-desmethoxymacbecin] |  |  | 18% | 5% | 52% | 6% | 35% | 5% | 55% | 17% | 35% | 8% | 38% | 4% |  | 
3 | CO[C@H]1C[C@H](C)[C@@H](O)C2=CC(=O)C=C(NC(=O)/C(C)=C/C=C\[C@H](C)[C@@H](OC(N)=O)/C(C)=C/[C@H](C)[C@H]1O)C2=O [compound 14, 11-O-desmethyl-15-O-desmethylmacbecin] |  |  | 78.7% | 35% | 88.7% | 55% | 83.7% | 58.7% | 83.3% | 57.7% | 82.7% | 45.3% | 50.7% | 77% |  | 
4 | CO[C@H]1C[C@H](C)Cc2cc(O)cc(c2)NC(=O)/C=C/CC[C@H](OC)[C@@H](OC(N)=O)/C(C)=C/[C@H](C)[C@H]1O [KOSN1559] |  |  |  |  |  |  |  |  |  |  |  |  |  |  | 8 fold | 4 fold
5 | CO[C@H]1C[C@H](C)CC2=CC(=O)C=C(NC(=O)/C(C)=C/C=C\[C@H](C)[C@@H](OC(N)=O)/C(C)=C/[C@H](C)[C@H]1O)C2=O [compound 15, 11-O-desmethyl-15-desmethoxymacbecin] |  |  | 16.3% | 6% | 37.7% | 9% | 49.3% | 13.7% | 57.7% | 11.7% | 30% | 9% | 22% | 5% |  | 
